According to patent publication US7659404B2, “Broad spectrum 2-(substituted-amino)-benzothiazole sulfonamide HIV protease inhibitors” (Tibotec Pharmaceuticals Ltd., priority 2001, dated 2010):

Assays:
[1] = tested on: clinically isolated HIV strain A; experiment: Antiviral spectrum, cellular assay (fold resistance), strain A; assay type: cell-based; details: FR=EC50(mutant strain)/EC50(HIV-1 strain LAI)
Experimental: (§1) HIV- or mock-infected MT4 cells were incubated for five days in the presence of various concentrations of the inhibitor. At the end of the incubation period, all HIV-infected cells have been killed by the replicating virus in the control cultures in the absence of any inhibitor. Cell viability is measured by measuring the concentration of MTT, a yellow, water soluble tetrazolium dye that is converted to a purple, water insoluble formazan in the mitochondria of living cells only. Upon solubilization of the resulting formazan crystals with isopropanol, the absorbance of the solution is monitored at 540 nm. The values correlate directly to the number of living cells remaining in the culture at the completion of the five day incubation. The inhibitory activity of the compound was monitored on the virus-infected cells and was expressed as EC50 and EC90. These values represent the amount of the compound required to protect 50% and 90%, respectively, of the cells from the cytopathogenic effect of the virus. The toxicity of the compound was measured on the mock-infected cells and was expressed as CC50, which represents the concentration of compound required to inhibit the growth of the cells by 50%. The selectivity index (SI) (ratio CC50/EC50) is an indication of the selectivity of the anti-HIV activity of the inhibitor.
(§2) Because of the increasing emergence of drug resistant HIV strains, the present compounds were tested for their potency against clinically isolated HIV strains harboring several mutations. These mutations are associated with resistance to protease inhibitors and result in viruses that show various degrees of phenotypic cross-resistance to the currently commercially available drugs such as for instance saquinavir, ritonavir, nelfinavir, indinavir and amprenavir.
(§3) As a measure of the broad spectrum activity of the present compounds, the fold resistance (FR) defined as FR=EC50(mutant strain)/EC50(HIV-1 strain LAI).

[2] = tested on: clinically isolated HIV strain P; experiment: Antiviral spectrum, cellular assay (fold resistance), strain P; assay type: cell-based; details: FR=EC50(mutant strain)/EC50(HIV-1 strain LAI)
Experimental: as §1, §2, §3

[3] = tested on: clinically isolated HIV strain E; experiment: Antiviral spectrum, cellular assay (fold resistance), strain E; assay type: cell-based; details: FR=EC50(mutant strain)/EC50(HIV-1 strain LAI)
Experimental: as §1, §2, §3

[4] = tested on: clinically isolated HIV strain L; experiment: Antiviral spectrum, cellular assay (fold resistance), strain L; assay type: cell-based; details: FR=EC50(mutant strain)/EC50(HIV-1 strain LAI)
Experimental: as §1, §2, §3

[5] = tested on: clinically isolated HIV strain N; experiment: Antiviral spectrum, cellular assay (fold resistance), strain N; assay type: cell-based; details: FR=EC50(mutant strain)/EC50(HIV-1 strain LAI)
Experimental: as §1, §2, §3

[6] = tested on: clinically isolated HIV strain T; assay type: cell-based; details: FR=EC50(mutant strain)/EC50(HIV-1 strain LAI)
How it was run: (§4)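 HIV-infected MT4 cells were incubated five days with inhibitor, and viability was read by MTT reduction at 540 nm. EC50/EC90 are the concentrations protecting 50%/90% of cells from viral cytopathic effect. Fold resistance is EC50 against the clinical isolate divided by EC50 against HIV-1 LAI.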

[7] = tested on: clinically isolated HIV strain H; assay type: cell-based; details: FR=EC50(mutant strain)/EC50(HIV-1 strain LAI)
How it was run: as §4

[8] = tested on: clinically isolated HIV strain I; assay type: cell-based; details: FR=EC50(mutant strain)/EC50(HIV-1 strain LAI)
How it was run: as §4

[9] = tested on: clinically isolated HIV strain O; assay type: cell-based; details: FR=EC50(mutant strain)/EC50(HIV-1 strain LAI)
How it was run: as §4

[10] = tested on: clinically isolated HIV strain J; assay type: cell-based; details: FR=EC50(mutant strain)/EC50(HIV-1 strain LAI)
How it was run: as §4

[11] = tested on: clinically isolated HIV strain R; experiment: Antiviral spectrum, cellular assay (fold resistance), strain R; assay type: cell-based; details: FR=EC50(mutant strain)/EC50(HIV-1 strain LAI)
Experimental: as §1, §2, §3

[12] = tested on: clinically isolated HIV strain Q; experiment: Antiviral spectrum, cellular assay (fold resistance), strain Q; assay type: cell-based; details: FR=EC50(mutant strain)/EC50(HIV-1 strain LAI)
Experimental: as §1, §2, §3

[13] = tested on: clinically isolated HIV strain B; experiment: Antiviral spectrum, cellular assay (fold resistance), strain B; assay type: cell-based; details: FR=EC50(mutant strain)/EC50(HIV-1 strain LAI)
Experimental: as §1, §2, §3

[14] = tested on: clinically isolated HIV strain C; experiment: Antiviral spectrum, cellular assay (fold resistance), strain C; assay type: cell-based; details: FR=EC50(mutant strain)/EC50(HIV-1 strain LAI)
Experimental: as §1, §2, §3

[15] = tested on: clinically isolated HIV strain D; experiment: Antiviral spectrum, cellular assay (fold resistance), strain D; assay type: cell-based; details: FR=EC50(mutant strain)/EC50(HIV-1 strain LAI)
Experimental: as §1, §2, §3

[16] = tested on: clinically isolated HIV strain M; experiment: Antiviral spectrum, cellular assay (fold resistance), strain M; assay type: cell-based; details: FR=EC50(mutant strain)/EC50(HIV-1 strain LAI)
Experimental: as §1, §2, §3

HIV-1 strain LAI = experiment: Cellular anti-HIV assay in MT4 cells (MTT), wild type laboratory strain; assay type: cell-based; details: Human immunodeficiency virus 1, 120 h; MT4 cells, five days, MTT; read-out: EC50 value against HIV-1 strain LAI
Experimental: The compounds of the present invention were examined for anti-viral activity in a cellular assay. […] The cellular assay was performed according to the following procedure.
Cellular Assay Experimental Method:
as §1

[17] = tested on: clinically isolated HIV strain K; experiment: Antiviral spectrum, cellular assay (fold resistance), strain K; assay type: cell-based; details: FR=EC50(mutant strain)/EC50(HIV-1 strain LAI)
Experimental: as §1, §2, §3

[18] = tested on: clinically isolated HIV strain G; experiment: Antiviral spectrum, cellular assay (fold resistance), strain G; assay type: cell-based; details: FR=EC50(mutant strain)/EC50(HIV-1 strain LAI)
Experimental: as §1, §2, §3

virus strain S (R13080) = experiment: microbe, parasite or virus in culture; assay type: cell-based, HIV; details: FR=EC50(mutant strain)/EC50(HIV-1 strain LAI); strain S
How it was run: as §4

virus strain F (R13025) = experiment: microbe, parasite or virus in culture; assay type: cell-based, HIV; details: FR=EC50(mutant strain)/EC50(HIV-1 strain LAI); strain F
How it was run: as §4

| SMILES | fold resistance (FR), strain A [1] | fold resistance (FR), strain P [2] | fold resistance (FR), strain E [3] | fold resistance (FR), strain L [4] | fold resistance (FR), strain N [5] | fold resistance (FR), strain T [6] | fold resistance (FR), strain H [7] | fold resistance (FR), strain I [8] | fold resistance (FR), strain O [9] | fold resistance (FR), strain J [10] | fold resistance (FR), strain R [11] | fold resistance (FR), strain Q [12] | fold resistance (FR), strain B [13] | fold resistance (FR), strain C [14] | fold resistance (FR), strain D [15] | fold resistance (FR), strain M [16] | fold resistance (FR), strain K [17] | fold resistance (FR), strain G [18] | fold resistance (FR), strain S (virus strain S (R13080)) | fold resistance (FR), strain F (virus strain F (R13025)) | further results |
| --- | --- | --- | --- | --- | --- | --- | --- | --- | --- | --- | --- | --- | --- | --- | --- | --- | --- | --- | --- | --- | --- |
| CCOC(=O)Nc1nc2ccc(S(=O)(=O)N(CC(C)C)CC(O)C(Cc3ccccc3)NC(=O)OC3COC4OCCC34)cc2s1 (stereo not shown) [Compound 2] | 0.3 | 0.2 | 0.4 | 0.2 | 1.1 | 29.6 | 1.0 | 0.7 | 0.8 | 0.4 | 0.3 | 0.3 | 0.2 | 0.2 | 0.3 | 0.3 | 0.2 | 0.2 | 1.7 | 1.1 | EC50 (HIV-1 strain LAI): < 0.05 µM |
| CC(C)CN(C[C@@H](O)[C@H](Cc1ccccc1)NC(=O)O[C@H]1CCOC1)S(=O)(=O)c1ccc2nc(NC(=O)CN3CCNCC3)sc2c1 [Compound 35] | 0.5 | 0.2 | 0.9 | 0.2 | 1.1 | 22.2 | 0.8 | 0.8 | 0.3 | 0.8 | 0.9 | 0.9 | 0.9 | 0.6 | 0.5 | 0.6 | 0.4 | 0.5 | 4.3 | 2.1 |  |
| Cc1cccc(C)c1OCC(=O)N[C@@H](Cc1ccccc1)[C@H](O)CN(CC(C)C)S(=O)(=O)c1ccc2nc(NC(=O)CN3CCCC3)sc2c1 [Compound 37] | 6.1 | 0.3 | 1.6 | 2.1 | 1.4 | 185.8 | 4.1 | 6.8 | 7.3 | 5.0 | 1.5 | 3.8 | 1.9 | 3.8 | 1.4 | 5.0 | 0.5 | 1.3 | 10.0 | 6.1 |  |
| CC(C)CN(C[C@@H](O)[C@H](Cc1ccccc1)NC(=O)O[C@H]1CO[C@H]2OCC[C@H]21)S(=O)(=O)c1ccc2nc(NC(=O)CN3CCCC3)sc2c1.O=C(O)/C=C/C(=O)O [Compound 13] | 0.2 | 0.2 | 0.2 | 0.1 | 1.0 | 5.8 | 0.6 | 0.3 | 0.3 | 0.2 | 0.2 | 0.4 | 0.2 | 0.2 | 0.2 | 0.2 | 0.2 | 0.2 | 1.0 | 0.6 |  |
| CC(=O)Nc1nc2ccc(S(=O)(=O)N(CC(C)C)CC(O)C(Cc3ccccc3)NC(=O)OC3COC4OCCC34)cc2s1 (mixture of isomers) [Compound 1] | 0.4 | 0.2 | 0.6 | 0.2 | 1.0 | 5.1 | 0.9 | 0.8 | 0.4 | 0.5 | 0.7 | 0.8 | 0.3 | 0.7 | 0.7 | 0.5 | 0.4 | 0.3 | 1.0 | 0.8 |  |
| CC(C)CN(C[C@@H](O)[C@H](Cc1ccccc1)NC(=O)O[C@H]1CCOC1)S(=O)(=O)c1ccc2nc(NC(=O)CN(C)C)sc2c1 [Compound 34] | 5.0 | 0.9 | 4.5 | 1.2 | 4.0 | 802.7 | 11.4 | 5.6 | 5.0 | 5.8 | 1.1 | 4.0 | 5.9 | 5.5 | 6.6 | 1.2 | 1.3 | 3.2 | 99.6 | 61.9 |  |
